In brackets after ≈: the same amount, converted by molar mass.
Experiments:
Test in all cases: In vitro antibacterial evaluation: minimum inhibitory concentration (MIC), broth dilution method
Assay type in all cases: cell-based
Escherichia coli = system: Escherichia coli
How it was run: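 Using Muller-Hinton II […] and an inoculum of 5×10^5 CFU/mL, antibiotic dilutions from 64 down to 0.06 μg/mL were tested following NCCLS M7-A2. The MIC is the lowest concentration inhibiting growth, including in methicillin-, penicillin- or vancomycin-resistant clinical isolates.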

Streptococcus sp. = system: Streptococcus sp.
How it was run: (§1)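 NCCLS M7-A2 broth dilution; Muller-Hinton II […]; 5×10^5 CFU/mL; 64-0.06 μg/mL. MIC = lowest concentration with no growth.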

Staphylococcus sp. = settings: for MIC Staphylococcus aureus (ATCC 29213) / MIC Staphylococcus aureus (GC 1131) / MIC Staphylococcus aureus (GC 3051) / MIC Staphylococcus aureus (GC 3053) / MIC Staphylococcus aureus (GC 4541) / MIC Staphylococcus aureus (GC 4542) / MIC Staphylococcus aureus (GC 4544) / MIC Staphylococcus aureus (GC 4545): broth dilution, 18 hours at 35° C.
How it was run: as §1

Enterococcus sp. = system: Enterococcus sp.
How it was run: as §1

[1] = broth dilution, inoculum 5×10^5 CFU/mL, 18 hours at 35° C.

MIC Escherichia coli (ATCC 25922) (Escherichia coli; strain ATCC 25922): >64 µg/mL
MIC Escherichia coli (GC 4559) (Escherichia coli; strain GC 4559): >64 µg/mL
MIC Escherichi coli (GC 4560) (Escherichia coli; strain GC 4560): 4 µg/mL (≈ 2.6 µM)
MIC Streptococcus agalactiae (GC 4564) (Streptococcus sp.; [1]): <0.06 µg/mL
MIC Streptococcus pneumoniae (ATCC 6301) (Streptococcus sp.; [1]): <0.06 µg/mL
MIC Streptococcus pneumoniae (GC 1894) (Streptococcus sp.; [1]): <0.06 µg/mL
MIC Streptococcus pneumoniae (GC 4565) (Streptococcus sp.; [1]): <0.06 µg/mL
MIC Streptococcus pyogenes (GC 4563) (Streptococcus sp.; [1]): <0.06 µg/mL
MIC Streptococcus pneumoniae (ATCC 6301) (Streptococcus sp.; strain ATCC 6301): <0.06 µg/mL
MIC Streptococcus pneumoniae (GC 1894) (Streptococcus sp.; strain GC 1894): <0.06 µg/mL
MIC Streptococcus pyogenes (GC 4563) (Streptococcus sp.; strain GC 4563): <0.06 µg/mL
MIC Streptococcus agalactiae (GC 4564) (Streptococcus sp.; strain GC 4564): <0.06 µg/mL
MIC Streptococcus pneumoniae (GC 4565) (Streptococcus sp.; strain GC 4565): <0.06 µg/mL
MIC Staphylococcus aureus (ATCC 29213) (Staphylococcus sp.; 5×10^5 CFU/mL): 4 µg/mL (≈ 2.6 µM)
MIC Staphylococcus aureus (GC 1131) (Staphylococcus sp.; 5×10^5 CFU/mL): 8 µg/mL (≈ 5.21 µM)
MIC Staphylococcus aureus (GC 3051) (Staphylococcus sp.; 5×10^5 CFU/mL): 2 µg/mL (≈ 1.3 µM)
MIC Staphylococcus aureus (GC 3053) (Staphylococcus sp.; 5×10^5 CFU/mL): 2 µg/mL (≈ 1.3 µM)
MIC Staphylococcus aureus (GC 4541) (Staphylococcus sp.; 5×10^5 CFU/mL): 8 µg/mL (≈ 5.21 µM)
MIC Staphylococcus aureus (GC 4542) (Staphylococcus sp.; 5×10^5 CFU/mL): 4 µg/mL (≈ 2.6 µM)
MIC Staphylococcus aureus (GC 4544) (Staphylococcus sp.; 5×10^5 CFU/mL): 4 µg/mL (≈ 2.6 µM)
MIC Staphylococcus aureus (GC 4545) (Staphylococcus sp.; 5×10^5 CFU/mL): 4 µg/mL (≈ 2.6 µM)
MIC Staphylococcus aureus (ATCC 29213) (Staphylococcus sp.; strain ATCC 29213): 4 µg/mL (≈ 2.6 µM)
MIC Staphylococcus aureus (GC 1131) (Staphylococcus sp.; strain GC 1131): 8 µg/mL (≈ 5.21 µM)
MIC Staphylococcus aureus (GC 3051) (Staphylococcus sp.; strain GC 3051): 2 µg/mL (≈ 1.3 µM)
MIC Staphylococcus aureus (GC 3053) (Staphylococcus sp.; strain GC 3053): 2 µg/mL (≈ 1.3 µM)
MIC Staphylococcus aureus (GC 4541) (Staphylococcus sp.; strain GC 4541): 8 µg/mL (≈ 5.21 µM)
MIC Staphylococcus aureus (GC 4542) (Staphylococcus sp.; strain GC 4542): 4 µg/mL (≈ 2.6 µM)
MIC Staphylococcus aureus-SMITH (GC 4543) (Staphylococcus sp.; strain GC 4543): 4 µg/mL (≈ 2.6 µM)
MIC Staphylococcus aureus (GC 4544) (Staphylococcus sp.; strain GC 4544): 4 µg/mL (≈ 2.6 µM)
MIC Staphylococcus aureus (GC 4545) (Staphylococcus sp.; strain GC 4545): 4 µg/mL (≈ 2.6 µM)
MIC Coagulase Negative Staphylococcus (GC 4547) (Staphylococcus sp.; strain GC 4547): 4 µg/mL (≈ 2.6 µM)
MIC Coagulase Negative Staphylococcus (GC 4548) (Staphylococcus sp.; strain GC 4548): 2 µg/mL (≈ 1.3 µM)
MIC Coagulase Negative Staphylococcus (GC 4549) (Staphylococcus sp.; strain GC 4549): 4 µg/mL (≈ 2.6 µM)
MIC Coagulase Negative Staphylococcus (GC 4551) (Staphylococcus sp.; strain GC 4551): 4 µg/mL (≈ 2.6 µM)
MIC Coagulase Negative Staphylococcus (GC 6257) (Staphylococcus sp.; strain GC 6257): 2 µg/mL (≈ 1.3 µM)
MIC Enterococcus avium (GC 4558) (Enterococcus sp.; [1]): 2 µg/mL (≈ 1.3 µM)
MIC Enterococcus faecalis (ATCC 29212) (Enterococcus sp.; [1]): 8 µg/mL (≈ 5.21 µM)
MIC Enterococcus faecalis (GC 2242) (Enterococcus sp.; [1]): 8 µg/mL (≈ 5.21 µM)
MIC Enterococcus faecalis (GC 2691) (Enterococcus sp.; [1]): 2 µg/mL (≈ 1.3 µM)
MIC Enterococcus faecalis (GC 3059) (Enterococcus sp.; [1]): 4 µg/mL (≈ 2.6 µM)
MIC Enterococcus faecalis (GC 4552) (Enterococcus sp.; [1]): 8 µg/mL (≈ 5.21 µM)
MIC Enterococcus faecalis (GC 4553) (Enterococcus sp.; [1]): 4 µg/mL (≈ 2.6 µM)
MIC Enterococcus faecalis (GC 4554) (Enterococcus sp.; [1]): 4 µg/mL (≈ 2.6 µM)
MIC Enterococcus faecalis (GC 6189) (Enterococcus sp.; [1]): 2 µg/mL (≈ 1.3 µM)
MIC Enterococcus faecium (GC 2243) (Enterococcus sp.; [1]): 2 µg/mL (≈ 1.3 µM)
MIC Enterococcus faecium (GC 4556) (Enterococcus sp.; [1]): 8 µg/mL (≈ 5.21 µM)
MIC Enterococcus faecium (GC 4557) (Enterococcus sp.; [1]): 4 µg/mL (≈ 2.6 µM)
MIC Enterococcus faecalis (ATCC 29212) (Enterococcus sp.; strain ATCC 29212): 8 µg/mL (≈ 5.21 µM)
MIC Enterococcus faecalis (GC 2242) (Enterococcus sp.; strain GC 2242): 8 µg/mL (≈ 5.21 µM)
MIC Enterococcus faecium (GC 2243) (Enterococcus sp.; strain GC 2243): 2 µg/mL (≈ 1.3 µM)
MIC Enterococcus faecalis (GC 2691) (Enterococcus sp.; strain GC 2691): 2 µg/mL (≈ 1.3 µM)
MIC Enterococcus faecalis (GC 3059) (Enterococcus sp.; strain GC 3059): 4 µg/mL (≈ 2.6 µM)
MIC Enterococcus faecalis (GC 4552) (Enterococcus sp.; strain GC 4552): 8 µg/mL (≈ 5.21 µM)
MIC Enterococcus faecalis (GC 4553) (Enterococcus sp.; strain GC 4553): 4 µg/mL (≈ 2.6 µM)
MIC Enterococcus faecalis (GC 4554) (Enterococcus sp.; strain GC 4554): 4 µg/mL (≈ 2.6 µM)
MIC Enterococcus faecium (GC 4556) (Enterococcus sp.; strain GC 4556): 8 µg/mL (≈ 5.21 µM)
MIC Enterococcus faecium (GC 4557) (Enterococcus sp.; strain GC 4557): 4 µg/mL (≈ 2.6 µM)
MIC Enterococcus avium (GC 4558) (Enterococcus sp.; strain GC 4558): 2 µg/mL (≈ 1.3 µM)
MIC Enterococcus faecalis (GC 6189) (Enterococcus sp.; strain GC 6189): 2 µg/mL (≈ 1.3 µM)
Compound: CC(C)=CCCC(C)=CCOc1ccc(C2OCC3OC(OC4C(CO)OC(Oc5ccc(CC6NC(=O)C(C(C)c7ccccc7)NC(=O)CNC(=O)C(CO)NC(=O)C(C(O)C7CNC(=N)N7C7OC(CO)C(O)C(O)C7O)NC(=O)C(C(O)C7CNC(=N)N7)NC6=O)cc5)C(O)C4O)C(O)C(O)C3O2)cc1 (stereo not drawn) [Example 183, Cyclo[glycyl-β-methylphenylalanyl-O-[4-O-[4,6-O-[4-[(3,7-dimethylocta-2,6-dien-1-yl)oxy]-benzylidene]hexopyranosyl]hexopyranosyl]tyrosyl-3-(2-iminoimidazolidin-4-yl)seryl-3-(3-hexopyranosyl-2-iminoimidazolidin-4-yl)serylseryl]]
MIC Staphylococcus haemolyticus (GC 4546) (Staphylococcus sp.; strain GC 4546): 8 µg/mL (≈ 5.21 µM)
